Assays:
MST1 = biological target: T1, MST1 (Homo sapiens, UniProt Q13043); experiment: Kinobeads competition binding, HL60 cell lysate; design: endogenous in cells; details: 10 μM free compound
T1 sequence (Q13043 1-487): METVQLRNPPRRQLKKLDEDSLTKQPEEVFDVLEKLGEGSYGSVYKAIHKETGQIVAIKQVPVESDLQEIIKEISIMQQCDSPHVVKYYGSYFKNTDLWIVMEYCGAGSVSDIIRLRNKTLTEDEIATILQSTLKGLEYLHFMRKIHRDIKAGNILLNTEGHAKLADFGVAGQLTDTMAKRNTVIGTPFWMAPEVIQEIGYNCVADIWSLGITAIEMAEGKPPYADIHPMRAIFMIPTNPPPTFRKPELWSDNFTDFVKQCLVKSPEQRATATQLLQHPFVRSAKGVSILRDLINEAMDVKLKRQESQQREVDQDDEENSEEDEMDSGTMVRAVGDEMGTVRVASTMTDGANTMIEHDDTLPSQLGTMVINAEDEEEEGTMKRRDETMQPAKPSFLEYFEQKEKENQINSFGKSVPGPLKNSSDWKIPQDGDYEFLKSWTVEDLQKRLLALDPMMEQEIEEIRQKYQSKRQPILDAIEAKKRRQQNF
Procedure, shortened: (§1)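 Two aliquots of HL60 cell lysate were used, one spiked with 10 μM compound and one with 0.5% DMSO, before pull-down on immobilized-compound beads (50 mg protein, 2 h, 4 °C). Bound proteins were digested and labeled with different iTRAQ reagents. Combined peptides were analysed by LC-MS/MS.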

CDK9 = CDK9 (Homo sapiens, UniProt P50750); experiment: Kinobeads competition binding, HL60 cell lysate; design: endogenous in cells; details: 10 μM free compound
Procedure, shortened: as §1

Chain of CDK9 (P50750 whole entry): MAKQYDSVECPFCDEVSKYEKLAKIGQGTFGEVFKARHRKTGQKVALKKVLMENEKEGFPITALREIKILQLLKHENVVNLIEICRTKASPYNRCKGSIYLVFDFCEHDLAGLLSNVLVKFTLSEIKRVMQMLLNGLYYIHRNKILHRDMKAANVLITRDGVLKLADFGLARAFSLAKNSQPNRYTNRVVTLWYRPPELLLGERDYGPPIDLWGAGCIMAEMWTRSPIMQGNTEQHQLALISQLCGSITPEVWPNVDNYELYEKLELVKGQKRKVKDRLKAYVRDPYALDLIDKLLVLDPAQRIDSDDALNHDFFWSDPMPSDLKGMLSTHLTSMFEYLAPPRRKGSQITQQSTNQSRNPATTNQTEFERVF

`CS(=O)(=O)Nc1ccccc1Nc1nc(Nc2cccc(OCCN)c2)ncc1Cl` [CZC31326, N-(2-(2-(3-(2-aminoethoxy)phenylamino)-5-chloropyrimidin-4-ylamino)phenyl)methanesulfonamide] showed a Competition % (MST1) of 97.7% and an inhibition at 10 µM (CDK9) of 98.2%.

— patent publication US20120270237A9, “METHODS FOR THE IDENTIFICATION OF KINASE INTERACTING MOLECULES AND FOR THE PURIFICATION OF KINASE PROTEINS” (Cellzone AG, priority 2009, published 2012)
